The results in this text go back to patent US20240101573A1, “MACROCYCLIC K-RAS G12C INHIBITOR, PREPARATION METHOD THEREFOR AND USE THEREOF” (Abbisko Therapeutics Co., Ltd., priority 2020, published 2024).

The subject of one test is H358. The test is described as follows: Anti-proliferation 2D CTG test (H358). Format: cell-based. The conditions noted are these: H358 cells, 1500 cells/well, 5 days incubation with compound, CTG readout. The protocol: (§1) When the cell confluency was 80%, the cells were isolated with 0.25% trypsin. The isolated cells were resuspended in 5 mL of fresh cell culture medium and centrifuged to collect the cells. The number of cells were counted at the same time. Then, the cells were suspended in a culture medium at a moderate concentration. The cells were placed into a 96-well plate with 1500 cells/well for H358 and 500 cells/well for MIAPACA-2. The 96-well plate was placed in an incubator at 37° C. and incubated overnight.
(§2) 2) Day 1: processing of compound
(§3) A 2 mM stock solution was serially diluted at 10 points at a ratio of 1:3. 5× culture medium containing the compound was transferred to the corresponding wells of 96 wells. The final peak concentration of the compound was […], and the final concentration of DMSO was 0.5%. The 96-well plate was placed in the incubator at 37° C. and incubated for 5 days.
(§4) 3) Baseline reading. 4) Day 6: reading of signals
(§5) A detection reagent (CTG) was added at 50 μL/well, and the signals were read in an Envision instrument.
(§6) The percentage of inhibition ([…]) at each compound concentration was calculated based on the signals from the HPE and ZPE control wells contained in each assay plate and the fluorescence signals from individual compound wells. The inhibition rate in the ZPE control wells containing the enzyme and substrate was 0%, and the inhibition rate in the HPE control wells only containing the substrate was […]. By testing the compound in terms of numeric concentration and inhibition percentage, the compound concentration required for […] inhibition (IC50) was determined using a four-parameter logarithmic dose-response equation. The endpoint value (IC50) of the reference compound was evaluated in each experiment as a quality control measure. If the endpoint value was within three times the expected value, the experiment was considered acceptable.

The subject of the next test is MIA PaCa-2. In words: Anti-proliferation 2D CTG test (MIA PaCa-2). To be noted: MIAPACA-2 cells, 500 cells/well, 5 days incubation with compound, CTG readout. Format: cell-based. The protocol:
as §1, §2, §3, §4, §5, §6

Where [1] appears, read: Homo sapiens, MIA PaCa-2, 120 h.

As a reminder, the IC50 is the concentration needed to halve the response being measured. For `C=CC(=O)N1CCN(c2nc(=O)n3c4nc(c(F)cc24)-c2c(F)cccc2OCC(OCC)C(=O)c2ccnc(C(C)C)c2-3)[C@@H](C)C1` (stereo partly drawn) [Example 21, (R)-2^4-((S)-4-acryloyl-2-methylpiperazin-1-yl)-6-ethoxy-2^6,3^6-difluoro-1^2-isopropyl-2^1,2^2-dihydro-4-oxa-2(1,7)-pyrido[2,3-d]pyrimidina-1(3,4)-pyridina-3(1,2)-benzocycloheptane-22,7-dione], the IC50 in the test with H358 (Homo sapiens, NCI-H358, 120 h) was 0.06 µM; with MIA PaCa-2 (setting [1]), 0.153 µM.

Regarding `C=CC(=O)N1CCN(c2nc(=O)n3c4nc(c(F)cc24)-c2c(F)cccc2OCC(=O)C(OCC)c2ccnc(C(C)C)c2-3)[C@@H](C)C1` (stereo partly shown) [Example 22], the IC50 with H358 (Homo sapiens, NCI-H358, 120 h) came out at 0.014 µM; in the test with MIA PaCa-2 (setting [1]) it was 0.007 µM.

As for `C=CC(=O)N1CCN(c2nc(=O)n3c4nc(c(F)cc24)-c2c(F)cccc2OCC(O)C(OC(=O)C(N)C(C)C)c2ccnc(C(C)C)c2-3)C(C)C1` [Example 23, 2^4-((S)-4-acryloyl-2-methylpiperazin-1-yl)-2^6,3^6-difluoro-6-hydroxy-1^2-isopropyl-2^2-oxo-2^1,2^2-dihydro-4-oxa-2(1,7)-pyrido[2,3-d]pyrimidina-1(3,4)-pyridina-3(1,2)-benzocycloheptane-7-yl L-valine ester], the results for the IC50 in the test with H358 and with MIA PaCa-2 were 0.011 µM and 0.009 µM, respectively.

With `C=CC(=O)N1CCN(c2nc(=O)n3c4nc(c(F)cc24)-c2c(F)cccc2OCC(O)C(OCCF)c2ccnc(C(C)C)c2-3)[C@@H](C)C1` (stereo partly drawn) [Example 24, 2^4-((S)-4-acryloyl-2-methylpiperazin-1-yl)-2^6,3^6-difluoro-7-(2-fluoroethoxy)-6-hydroxy-1^2-isopropyl-2^1,2^2-dihydro-4-oxa-2(1,7)-pyrido[2,3-d]pyrimidina-1(3,4)-pyridina-3(1,2)-benzocycloheptane-2^2-one], the IC50 is 0.017 µM in the test on H358 (Homo sapiens, NCI-H358, 120 h) and 0.008 µM in the test with MIA PaCa-2 (setting [1]).

Regarding `C=CC(=O)N1CCN(c2nc(=O)n3c4nc(c(F)cc24)-c2c(F)cccc2OCC(OCCF)C(O)c2ccnc(C(C)C)c2-3)[C@@H](C)C1` (stereo partly drawn) [Example 25, 2^4-((S)-4-acryloyl-2-methylpiperazin-1-yl)-2^6,3^6-difluoro-6-(2-fluoroethoxy)-7-hydroxy-1^2-isopropyl-2^1,2^2-dihydro-4-oxa-2(1,7)-pyrido[2,3-d]pyrimidina-1(3,4)-pyridina-3(1,2)-benzocycloheptane-2^2-one], the IC50 in the test on H358 stood at 0.036 µM; with MIA PaCa-2, 0.015 µM.

As to `C=CC(=O)N1CCN(c2nc(=O)n3c4nc(c(F)cc24)-c2c(F)cccc2OCC(O)C(OC)c2ccnc(C(C)C)c2-3)[C@@H](C)C1` (stereo partly drawn) [Example 26, 2^4-((S)-4-acryloyl-2-methylpiperazin-1-yl)-7-methoxy-2^6,3^6-difluoro-6-hydroxy-1^2-isopropyl-2^1,2^2-dihydro-4-oxa-2(1,7)-pyrido[2,3-d]pyrimidina-1(3,4)-pyridina-3(1,2)-benzocycloheptane-2^2-one], the IC50 in the test with H358 is 0.002 µM; in the test with MIA PaCa-2, 0.001 µM.

For the compound `C=CC(=O)N1CCN(c2nc(=O)n3c4nc(c(F)cc24)-c2c(F)cccc2OCC(OC)C(O)c2ccnc(C(C)C)c2-3)[C@@H](C)C1` (stereo partly drawn) [Example 27, 24-((S)-4-acryloyl-2-methylpiperazin-1-yl)-6-methoxy-2^6,3^6-difluoro-7-hydroxy-1^2-isopropyl-2^1,2^2-dihydro-4-oxa-2(1,7)-pyrido[2,3-d]pyrimidina-1(3,4)-pyridina-3(1,2)-benzocycloheptane-2^2-one], the IC50 worked out at 0.009 µM in the test with H358 (Homo sapiens, NCI-H358, 120 h) and 0.004 µM in the test on MIA PaCa-2 (setting [1]).

Turning to `C=CC(=O)N1CCN(c2nc(=O)n3c4nc(c(F)cc24)-c2c(F)cccc2OCC(O)C(OCC)c2ccnc(C(C)C)c2-3)[C@@H](C)C1` (stereo partly drawn) [Example 28, 2^4-((S)-4-acryloyl-2-methylpiperazin-1-yl)-7-ethoxy-2^6,3^6-difluoro-6-hydroxy-1^2-isopropyl-2^1,2^2-dihydro-4-oxa-2(1,7)-pyrido[2,3-d]pyrimidina-1(3,4)-pyridina-3(1,2)-benzocycloheptane-2^2-one], the IC50 amounted to 0.028 µM in the test with H358 and 0.027 µM in the test on MIA PaCa-2.
